Results on one compound are retold here after patent US12433803B2, “Methods and compositions for studying cell evolution” (THE BROAD INSTITUTE, INC., priority 2017, dated 2025).

For this assay, the system named is D458 medulloblastoma cells. Briefly: Drug resistance experiment: barcoded D458 cells passaged in JQ1, barcode sequencing and deconvolution. Type of assay: cell-based. The following applies: FIG. 4; barcoded cells passaged with JQ1 (2 uM per method b225); same barcodes recovered in replicate experiments. The method, then:
Drug resistance experiments—D458 and JQ1. Barcoded D458 medulloblastoma cells (fingerprint verified) cells were treated with DMSO or JQ1 (obtained from Drs Bradner and Qi) at a concentration of 2 uM in multiple replicate plates (5×DMSO and 5× each drug concentration). 4 million cells of barcoded D458 cells were plated in each replicate plate in presence of DMSO or JQ1. Barcoded JQ1 cells were also frozen in 10% DMSO/FCS for future retrievable. In addition, cells were also collected for DNA-extraction to determine barcode representation at the early-time point. Cells were retreated with compound every 3-4 days. Cells were counted, passaged or split every 3-4 days, maintaining a minimum representation of 4 million cells. Cells were cultured in DMSO or JQ1 for a total of […] prior to harvesting for DNA extraction for barcode sequencing and deconvolution.
Library deconvolution. Genomic DNA was extracted and prepared for deep sequencing as in (JJ 2017). Libraries were sequenced to a minimum depth of 18 million reads, corresponding to a barcode coverage of >80×.

`Cc1sc2c(c1C)C(c1ccc(Cl)cc1)=N[C@@H](CC(=O)OC(C)(C)C)c1nnc(C)n1-2` [JQ1]: the “Percentage of barcodes that persist following treatment with JQ1” value was 5%.
